From the supplement of paper PMC10307832 come the findings set out here.

Assay in all cases: relative viability (nuclei count vs DMSO), 5 days (fraction); higher = more cells survive
Compound in the assay “Neratinib + OSI-027”: CCOc1cc2ncc(C#N)c(Nc3ccc(OCc4ccccn4)c(Cl)c3)c2cc1NC(=O)/C=C/CN(C)C [Neratinib] + COc1cccc2cc(-c3nc([C@H]4CC[C@H](C(=O)O)CC4)n4ncnc(N)c34)[nH]c12 [OSI-027] (partner 0.5 µM)
The procedure, abridged:
(§1)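 A single step with final 0.05% Triton X-100, 1% formaldehyde and 1 ug/ml Hoechst fixed the cells and stained nuclei 5 days after treatment. Lung cancer cell lines in 1536-well plates had been treated by pin tool the day after seeding with one drug alone or a fixed anchor-drug dose plus five library-drug doses (not always all listed) in √10 steps, and nuclei were counted on 4× images. Relative viability is the ratio of nuclei in treated wells to nuclei in vehicle wells, taken as the median of duplicate plates.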

Compound in the assay “Neratinib + Crizotinib”: CCOc1cc2ncc(C#N)c(Nc3ccc(OCc4ccccn4)c(Cl)c3)c2cc1NC(=O)/C=C/CN(C)C [Neratinib] + C[C@@H](Oc1cc(-c2cnn(C3CCNCC3)c2)cnc1N)c1c(Cl)ccc(F)c1Cl [Crizotinib] (partner 1 µM)
In a few lines: as §1

Compound in the assay “Neratinib + Linsitinib”: CCOc1cc2ncc(C#N)c(Nc3ccc(OCc4ccccn4)c(Cl)c3)c2cc1NC(=O)/C=C/CN(C)C [Neratinib] + C[C@]1(O)C[C@@H](c2nc(-c3ccc4ccc(-c5ccccc5)nc4c3)c3c(N)nccn32)C1 [Linsitinib] (partner 1 µM)
The procedure, abridged:
as §1

Compound in the assay “Neratinib + Tozasertib”: CCOc1cc2ncc(C#N)c(Nc3ccc(OCc4ccccn4)c(Cl)c3)c2cc1NC(=O)/C=C/CN(C)C [Neratinib] + Cc1cc(Nc2cc(N3CCN(C)CC3)nc(Sc3ccc(NC(=O)C4CC4)cc3)n2)n[nH]1 [Tozasertib] (partner 0.1 µM)
In a few lines:
as §1

With NCI-H1944, the relative viability in the assay with Neratinib + OSI-027 (first compound 0.01 µM) stood at 0.467; with Neratinib + OSI-027 (first compound 0.03162 µM) it was 0.419; in the assay with Neratinib + OSI-027 (first compound 0.1 µM), 0.337; with Neratinib + OSI-027 (first compound 0.3162 µM) it was 0.286; in the assay with Neratinib + OSI-027 (first compound 1 µM), 0.289; with Neratinib + Crizotinib (first compound 0.01 µM), 1.31. The relative viability with Neratinib + Crizotinib (first compound 0.03162 µM) is 0.991; in the assay with Neratinib + Crizotinib (first compound 0.1 µM) it was 0.99; with Neratinib + Crizotinib (first compound 0.3162 µM), 0.762; with Neratinib + Crizotinib (first compound 1 µM), 0.348; with Neratinib + Linsitinib (first compound 0.01 µM), 1.28; with Neratinib + Linsitinib (first compound 0.03162 µM), 1.08. Besides, the relative viability with Neratinib + Linsitinib (first compound 0.1 µM) was 0.93; with Neratinib + Linsitinib (first compound 0.3162 µM), 0.645; in the assay with Neratinib + Linsitinib (first compound 1 µM), 0.435; in the assay with Neratinib + Tozasertib (first compound 0.01 µM) it was 0.255; in the assay with Neratinib + Tozasertib (first compound 0.03162 µM), 0.248; with Neratinib + Tozasertib (first compound 0.1 µM) it was 0.221. Also, the relative viability came to 0.218 with Neratinib + Tozasertib (first compound 0.3162 µM) and 0.16 in the assay with Neratinib + Tozasertib (first compound 1 µM).
Turning to NCI-H1650, the relative viability with Neratinib + OSI-027 (first compound 0.01 µM) amounted to 0.557; with Neratinib + OSI-027 (first compound 0.03162 µM), 0.598; with Neratinib + OSI-027 (first compound 0.1 µM), 0.435; with Neratinib + OSI-027 (first compound 1 µM) it was 0.37; in the assay with Neratinib + Crizotinib (first compound 0.01 µM), 0.922; in the assay with Neratinib + Crizotinib (first compound 0.03162 µM) it was 1.03. Moreover, the relative viability was 0.705 with Neratinib + Crizotinib (first compound 0.1 µM); 0.568 with Neratinib + Crizotinib (first compound 0.3162 µM); 0.623 with Neratinib + Crizotinib (first compound 1 µM); 0.362 in the assay with Neratinib + Tozasertib (first compound 0.01 µM); 0.359 in the assay with Neratinib + Tozasertib (first compound 0.03162 µM); 0.292 with Neratinib + Tozasertib (first compound 0.1 µM). In addition, the relative viability was determined as 0.31 in the assay with Neratinib + Tozasertib (first compound 0.3162 µM) and 0.204 with Neratinib + Tozasertib (first compound 1 µM).
In the case of NCI-H1648, the relative viability in the assay with Neratinib + OSI-027 (first compound 0.01 µM) was determined as 0.297; in the assay with Neratinib + OSI-027 (first compound 0.03162 µM), 0.265; with Neratinib + OSI-027 (first compound 0.1 µM), 0.303; with Neratinib + OSI-027 (first compound 0.3162 µM), 0.305; in the assay with Neratinib + OSI-027 (first compound 1 µM), 0.278; in the assay with Neratinib + Tozasertib (first compound 0.01 µM), 0.608. Further, the relative viability in the assay with Neratinib + Tozasertib (first compound 0.03162 µM) was 0.364; with Neratinib + Tozasertib (first compound 0.1 µM), 0.54; with Neratinib + Tozasertib (first compound 0.3162 µM), 0.299; with Neratinib + Tozasertib (first compound 1 µM), 0.188.
With NCI-H2170, the relative viability is 0.761 with Neratinib + OSI-027 (first compound 0.01 µM); 0.771 with Neratinib + OSI-027 (first compound 0.03162 µM); 0.287 with Neratinib + OSI-027 (first compound 0.1 µM); 0.22 in the assay with Neratinib + OSI-027 (first compound 0.3162 µM); 0.239 in the assay with Neratinib + OSI-027 (first compound 1 µM); 1.14 in the assay with Neratinib + Crizotinib (first compound 0.01 µM). Moreover, the relative viability with Neratinib + Crizotinib (first compound 0.03162 µM) amounted to 0.77; with Neratinib + Crizotinib (first compound 0.1 µM), 0.617; with Neratinib + Crizotinib (first compound 0.3162 µM) it was 0.302; in the assay with Neratinib + Crizotinib (first compound 1 µM), 0.223; with Neratinib + Tozasertib (first compound 0.01 µM), 0.842; with Neratinib + Tozasertib (first compound 0.03162 µM), 0.684. Also, the relative viability turned out to be 0.565 in the assay with Neratinib + Tozasertib (first compound 0.1 µM), 0.266 with Neratinib + Tozasertib (first compound 0.3162 µM) and 0.183 in the assay with Neratinib + Tozasertib (first compound 1 µM).
Regarding NCI-H1563, the relative viability with Neratinib + OSI-027 (first compound 0.01 µM) amounted to 0.806; with Neratinib + OSI-027 (first compound 0.03162 µM), 0.725; with Neratinib + OSI-027 (first compound 0.1 µM) it was 0.732; with Neratinib + OSI-027 (first compound 0.3162 µM) it was 0.67; with Neratinib + OSI-027 (first compound 1 µM), 0.575; in the assay with Neratinib + Crizotinib (first compound 0.01 µM) it was 0.918. The relative viability came to 0.802 in the assay with Neratinib + Crizotinib (first compound 0.03162 µM); 0.788 with Neratinib + Crizotinib (first compound 0.1 µM); 0.758 with Neratinib + Crizotinib (first compound 0.3162 µM); 0.638 with Neratinib + Crizotinib (first compound 1 µM); 1.22 with Neratinib + Linsitinib (first compound 0.01 µM); 1.24 in the assay with Neratinib + Linsitinib (first compound 0.03162 µM). The values for the relative viability in the assay with Neratinib + Linsitinib (first compound 0.1 µM), in the assay with Neratinib + Linsitinib (first compound 0.3162 µM) and in the assay with Neratinib + Linsitinib (first compound 1 µM) were 0.993, 1.1 and 0.998, respectively.
As to EBC-1, the relative viability with Neratinib + Crizotinib (first compound 0.01 µM) turned out to be 0.167; with Neratinib + Crizotinib (first compound 0.03162 µM), 0.204; with Neratinib + Crizotinib (first compound 0.1 µM) it was 0.175; in the assay with Neratinib + Crizotinib (first compound 1 µM) it was 0.203; in the assay with Neratinib + Linsitinib (first compound 0.01 µM) it was 0.932; in the assay with Neratinib + Linsitinib (first compound 0.03162 µM), 1.08. The relative viability with Neratinib + Linsitinib (first compound 0.1 µM) was found to be 0.842; in the assay with Neratinib + Linsitinib (first compound 0.3162 µM), 0.914; with Neratinib + Linsitinib (first compound 1 µM) it was 1.04.
Take Calu-6: the relative viability came to 0.905 in the assay with Neratinib + Crizotinib (first compound 0.01 µM); 0.939 with Neratinib + Crizotinib (first compound 0.03162 µM); 0.737 in the assay with Neratinib + Crizotinib (first compound 0.1 µM); 0.692 with Neratinib + Crizotinib (first compound 0.3162 µM); 0.422 with Neratinib + Crizotinib (first compound 1 µM); 1.03 with Neratinib + Linsitinib (first compound 0.01 µM). Besides, the relative viability with Neratinib + Linsitinib (first compound 0.03162 µM) was found to be 1.08; with Neratinib + Linsitinib (first compound 0.1 µM), 1.02; in the assay with Neratinib + Linsitinib (first compound 0.3162 µM), 0.899; with Neratinib + Linsitinib (first compound 1 µM) it was 0.824.
